Results from patent publication US20130079228A1, “Agricultural spray solution compositions and methods” (priority 2011, published 2013).

System: velvetleaf
Experiment: efficacy of glyphosate spray on velvetleaf
Format: in vivo
Settings: in presence of drift reducing adjuvants, especially DR
Excerpt: Applicant's invention further contemplates the use of drift management adjuvants on the atomization, drift, patternation, retention, deposit formation, and efficacy of an herbicide spray. The drift of the spray particles decreases by suppressing the formation of fine droplets, i.e., <150 microns in diameter. The impact of drift reducing additives on pesticide efficacy in terms of the effect on the major phases, i.e., the larger droplets, on the dose transfer process is also considered. Two representative drift reducing adjuvants, i.e., (1) polyacrylamide polymers represented by Nalcotrol or Nalcotrol II (N or N2), and (2) biodegradable polymers represented by AgRHO DR-2000 (DR) of Rhone-Poulenc Inc. were considered in mixtures containing glyphosate.
Pattern distributions undergo significant deviations from even distributions using herbicide alone when polymers are added. […] 30% less spray is reflected from the cabbage leaves from mixtures containing DR compared to either water alone or water containing polyacrylamide polymers. Spray retention is reduced by the addition of drift reducing adjuvants. DR is better at wetting the cabbage leaves. […] The efficacy of glyphosate on velvetleaf is enhanced by the presence of drift reducing adjuvants, especially DR. […]

O=C(O)CNCP(=O)(O)O [glyphosate]
efficacy of glyphosate on velvetleaf: enhanced
